From US20100093861A1, “TREATMENT OF INSULIN RESISTANCE OR DISEASES ASSOCIATED WITH INSULIN RESISTANCE” (Stevia ApS, priority 2006, published 2010)

What was measured:
[1] = test system: isolated NMRI mice islets; experiment: Glucose stimulated insulin secretion (GSIS) from isolated NMRI mice islets; assay type: cell-based; settings: 10^−8 mol/l-10^−6 mol/l, 16.7 mmol/l glucose, 60 minutes
Procedure: For in vitro studies with steviol and ISV, we included adult female NMRI mice (Taconic, Ry Denmark), all weighing 22-25 g. We used 12 hours light/dark cycle. The Danish Council for Animal experiments has approved the study.
Islets were isolated by the collagenase digestion technique. In brief, the animals were anesthetized with pentobarbital (50 mg/kg intraperitoneally) and midline laparotomy was performed. The pancreas was retrogradely filled with 3 mL ice-cold Hanks balanced salt solution (([HBSS] Sigma Chemical, St Louis, Mo.) supplemented with 0.3 mg/ml collagenase Boehringer Mannheim GmbH, Germany). The pancreas was subsequently removed and incubated for 19 minutes at 37° C. After rinsing in HBSS, the islets were handpicked under a stereomicroscope and immediately transferred to a tubes containing 1 ml Trizol (Gibco/Invitrogene, Calsbad, Calif., USA). The islets isolated from the NMRI mice were incubated overnight at 37° C. and 95% normal atmosphere/5% CO2 in 10 ml RPMI 1640 containing 11.1 mmol/L glucose supplemented with penicillin G and 100 μg/mL streptomycin (all Gibco/Invitrogene, Calsbad, Calif., USA).
The NMRI female mice islets were rinsed twice with a modified Krebs-Ringer buffer (KRB) supplemented with 3.3 mmol/L glucose and 0.1% human serum albumin (Sigma). The KRB contained 125 mmol/L NaCl, 5.9 mmol/L KCl, 1.2 MgCl, 1.28 CaCl2 and 25 mmol/L HEPES (Ph 7.4: all Sigma). Single islets were incubated in 100 μL KRB containing glucose (3.3 and 16.7 mmol/L) and steviol/ISV according to the protocols (Jeppesen et al., 2000). After incubation (60 min), 50 μL of the medium was frozen for RIA analysis of insulin.

isolated mouse islets = settings: previously demonstrated (Jeppesen, P. B. et al., 2000); cited from earlier work

Which results are given for `C=C1C[C@@]23CC[C@H]4[C@@](C)(CCC[C@@]4(C)C(=O)O)[C@@H]2CC[C@]1(O)C3` [steviol, ent-kaur-16-en-13-ol-19-oic acid]?
potency on GSIS, isosteviol compared with steviol, at higher concentration [1]: not found any significant difference; insulinotropic effect on isolated mouse islets (isolated mouse islets): potent insulinotropic effect
